Consider seven compounds from ChEMBL document CHEMBL1148108, “Prenylated isoflavonoids from the root bark of Erythrina vogelii” (J Nat Prod, 2002).

Calls of active or inactive are those of the source. The rule behind the calls is not given here.

The test system of the assay is Cladosporium cucumerinum. The experiment in a line: Antifungal activity against Cladosporium cucumerinum by TLC biautography assay. The format is functional, organism-based.

In the case of `COc1ccc([C@@H]2COc3cc(O)c(CC=C(C)C)c(O)c3C2=O)cc1CC=C(C)C`, the outcome was inactive.

Take `COc1cc(O)c(CC=C(C)C)cc1-c1coc2cc(O)cc(O)c2c1=O`: the result was inactive.

For the compound `CC(C)=CCc1c(O)cc2occ(-c3ccc4c(c3)C=CC(C)(C)O4)c(=O)c2c1O`, the outcome was inactive.

For `C/C(=C\Cc1cc(-c2coc3cc(O)cc(O)c3c2=O)ccc1O)CO`, the outcome was inactive.

As to `CC(C)=CCc1c(O)cc(O)c2c(=O)c(-c3ccc4c(c3)C=CC(C)(C)O4)coc12`, the result was inactive.

`CC(C)=CCc1cc(-c2coc3cc(O)cc(O)c3c2=O)cc2c1OC(C)(C)C(O)C2` (configuration not stated): the outcome was inactive.

For `CC1(C)Oc2ccc(-c3coc4cc(O)cc(O)c4c3=O)cc2C[C@@H]1O`, the outcome was inactive.
